Assay [1] deals with Strep. mutans ATCC 25175. As to the kind of experiment: MBC assay. The class given is cell-based, Streptococcus mutans. The protocol: The S. mutans was cultured and maintained on Wilkins-Chalgren Anaerobe Medium (agar and broth) at pH 7.0 supplemented with 1 g/L glucose; all cultures were incubated at 37° C. for 48 h in an atmosphere containing 5% CO2. This assay, normally carried out after an MIC assay, determines the rnininiurn concentration of a compound that is lethal to the micro-organism being tested. […] These samples were then individually sub-cultured on antibiotic-free agar medium, under the incubation conditions described above. Following incubation they were examined visually for microbial growth.

Assay [2] deals with Por. gingivalis NCTC 11834. As to the kind of experiment: MBC assay. It is filed as cell-based, Porphyromonas gingivalis. As to the method: The P. gingivalis strains were cultured and maintained on Wilkins-Chalgren Anaerobe Medium (agar and broth) at pH 7.0; all cultures were incubated anaerobically at 37° C. for 5-7 days. This assay, normally carried out after an MIC assay, determines the rnininiurn concentration of a compound that is lethal to the micro-organism being tested. […] These samples were then individually sub-cultured on antibiotic-free agar medium, under the incubation conditions described above. Following incubation they were examined visually for microbial growth.

The test system of assay [3] is Strep. mutans ATCC 25175. Briefly: Biofilm disruption assay on hydroxyapatite discs. It is filed as cell-based, Streptococcus mutans. To be noted: Strep. mutans ATCC 25175 biofilm, DOSS 1.0% (w/v), CHX 0.2% (w/v). The protocol:
(§1) This assay was designed to determine quantitatively the relative potency of a test compound to disrupt (effectively kill) biofilms formed by a test organism on hydroxyapatite (HA) discs.
(§2) Biofilms were formed on sterile dense ceramic HA discs 7 mm diameter x 1.8 mm thick (Clarkson Chromatography) by placing the discs in the appropriate liquid media (as described above) inoculated with the test organism (0.5×10^8 cfu/ml). The HA discs were then incubated at 37° C. for ˜48 h in a 5% CO2 atmosphere (for Strep. mutans ATCC 25175) or ˜96 h under anaerobic conditions (for Por. gingivalis 381). Following the incubation period the supernatant was removed from the wells containing the HA discs and the discs were washed×3 with fresh media to ensure all planktonic cells were removed. The HA discs were then transferred to sterile bijoux bottles containing 1 ml of phosphate buffered saline (PBS) plus test compound(s) at the required concentration. After a set time period (usually 2 and/or 5 min), the HA disc was transferred to another sterile bijoux containing 1 ml of fresh growth media. Adherent cells were then harvested by vigorous vortexing for 2 minutes. A sample was then taken, serially diluted 10-fold in fresh growth media and inoculated onto agar plates in triplicate. Untreated HA discs, and HA discs added to PBS containing only the solvents used to dissolve the test compound(s), acted as controls.
(§3) The plates were then incubated as described above and subsequently examined visually for growth. Colonies were counted at an appropriate serial dilution (5-50 individual colonies visible) with the aid of a colony counter. These measurements were then converted to numbers of colony forming units (cfu), using the formula: cfu/ml=number of colonies×serial dilution factor×100 (as only a 10 μl sample was taken).
(§4) These cfu values were then converted into log10 values and plotted graphically against time of sample removal.
(§5) At each time point, samples were assessed in triplicate; the final cfu/ml value was an average (mean) of the three readings.
(§6) Biofilm disruption assays, as described above, were carried out using DOSS as the test compound and chlorhexidine (CHX) as a positive control. For these experiments, the DOSS was tested at 0.5% w/v against Por. gingivalis and 1% w/v against Strep. mutans. The ahlorhexidine was tested at a concentration of 0.2% w/v against both micro-organisms. The DOSS was dissolved in ethanol and the chlorhexidine in distilled water. All the experiments were conducted in triplicate.

The test system of another assay is C. striatum NCTC 764. As to the kind of experiment: MIC assay, liquid medium. It is filed as cell-based, Corynebacterium striatum. As to the method:
Several Corynebacterium test species were also used in this study, namely C. mucifaciens ATCC 700355, C. striatum NCTC 764, C. xerosis NCTC 11861 and C. jeikeium NCTC 11915. These Gram-positive pathogens are closely related to organisms (aerobic diphtheroids of the genus Corynebacterium) that cause body odour. C. mucifaciens and C. striatum were cultured and maintained on Mueller-Hinton Medium (agar and broth) and were incubated aerobically at 37° C. for 24 hours. C. xerosis and C. jeikeium were cultured and maintained on Mueller-Hinton Medium containing 5% (v/v) lysed horse blood (agar and broth) and were incubated aerobically at 37° C. for 72 hours.
This is a standard international method for quantitatively assessing the antimicrobial activity of a compound in a liquid medium. The method used a sterile 96-well microtitre plate, capable of holding about 200 μl of liquid per well. […]
The wells were inoculated with a liquid suspension of freshly grown micro-organism and incubated under the conditions described above. […] The MIC value was recorded as the lowest concentration of test compound required to inhibit microbial growth, ie, the lowest concentration for which the liquid in the well remained clear. […]

In a further assay the test system is Por. gingivalis 381. As to the kind of experiment: Biofilm disruption assay on hydroxyapatite discs. It is filed as cell-based, Porphyromonas gingivalis. To be noted: Por. gingivalis 381 biofilm, DOSS 0.5% (w/v), CHX 0.2% (w/v). As to the method: as §1, §2, §3, §4, §5, §6
Assay [4] relates to Strep. mutans ATCC 25175. Briefly: MIC assay, liquid medium. It is filed as cell-based, Streptococcus mutans. The protocol:
The S. mutans was cultured and maintained on Wilkins-Chalgren Anaerobe Medium (agar and broth) at pH 7.0 supplemented with 1 g/L glucose; all cultures were incubated at 37° C. for 48 h in an atmosphere containing 5% CO2.
This is a standard international method for quantitatively assessing the antimicrobial activity of a compound in a liquid medium. The method used a sterile 96-well microtitre plate, capable of holding about 200 μl of liquid per well. The wells contained liquid culture medium and ranges of decreasing concentrations of the relevant test compound in doubling dilutions (eg, 1000, 500, 250, 125 . . . μg/ml, etc. down to 0.49 μg/ml). The culture media were as described above.
The wells were inoculated with a liquid suspension of freshly grown micro-organism and incubated under the conditions described above. After incubation, the microtitre plate was examined visually (with the aid of a light box) for cloudiness in each well, which would indicate microbial growth. The MIC value was recorded as the lowest concentration of test compound required to inhibit microbial growth, ie, the lowest concentration for which the liquid in the well remained clear.
The assays included both negative (culture medium with no micro-organisms) and positive (culture medium plus diluting solvent plus micro-organism) controls.

This note sets out measurements from patent US20100273876A1, “ANTIBACTERIAL FORMULATION COMPRISING A DIALKYL SULPHOSUCCINATE AND A CARBANILIDE ANTIBACTERIAL AGENT” (priority 2007, published 2010).

In general, MBC refers to the smallest concentration meeting the test's criterion for killing. Low readings indicate more potent killing, high ones less potent killing. The term MIC denotes the lowest concentration that inhibits growth of the organism. Read a low MIC as greater potency. As for dioctyl sodium sulphosuccinate [DOSS], the MBC was 15.6 µg/mL in the assay with Strep. mutans ATCC 25175 [1] and under 0.49 µg/mL in assay [2]. Further, in the assay with Strep. mutans ATCC 25175 [1], the MIC/MBC ratio turned out to be 1. In addition, the Viable cell counts stood at 6.56 log10 cfu/ml with Strep. mutans ATCC 25175 [3] (0 min); 2.87 log10 cfu/ml in the assay on Strep. mutans ATCC 25175 [3] (2 min); 3.36 log10 cfu/ml in the assay on Strep. mutans ATCC 25175 [3] (5 min); 7.53 log10 cfu/ml in the assay with Por. gingivalis 381 (0 min); 5.08 log10 cfu/ml in the assay with Por. gingivalis 381 (2 min); 3.34 log10 cfu/ml with Por. gingivalis 381 (5 min). Besides, the MIC in the assay on C. striatum NCTC 764 turned out to be 62.5 µg/mL; in the assay with Strep. mutans ATCC 25175 [4] it was 15.6 µg/mL.
